Measurements reported in ChEMBL document CHEMBL4507259 (2021).

How the values were obtained:
[1] = target: Cyclin-dependent kinase 9 (Homo sapiens) (UniProt P50750); details: Compound concentration 1000.0 nM
[2] = target: Mitogen-activated protein kinase 11 (Homo sapiens) (UniProt Q15759); details: Compound concentration 1000.0 nM
[3] = target: Beta-2 adrenergic receptor (Homo sapiens) (UniProt P07550); assay: beta 2 (h) CEREP ligand profiling; details: filed as agonist, Compound concentration 10.0 uM
Sequence of Beta-2 adrenergic receptor (Homo sapiens) (P07550 whole entry, looked up): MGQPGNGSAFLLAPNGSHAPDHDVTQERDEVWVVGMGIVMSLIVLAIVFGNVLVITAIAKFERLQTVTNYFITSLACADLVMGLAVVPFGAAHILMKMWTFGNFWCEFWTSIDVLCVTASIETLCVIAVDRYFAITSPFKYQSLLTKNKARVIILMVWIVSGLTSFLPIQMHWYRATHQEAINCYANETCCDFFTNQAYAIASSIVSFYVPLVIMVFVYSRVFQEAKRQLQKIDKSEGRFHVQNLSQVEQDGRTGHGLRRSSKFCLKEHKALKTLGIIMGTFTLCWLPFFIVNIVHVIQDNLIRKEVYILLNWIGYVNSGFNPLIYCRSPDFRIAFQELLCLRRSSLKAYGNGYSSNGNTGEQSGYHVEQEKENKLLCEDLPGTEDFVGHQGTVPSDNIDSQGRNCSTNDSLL

[4] = target: CREB-binding protein/Histone acetyltransferase p300 (Homo sapiens, UniProt Q09472+Q92793); assay: Inhibition of H3K27Ac (DU-145); assay type: cell-based
[5] = target: Tyrosine-protein kinase JAK1 (Homo sapiens) (UniProt P23458); details: Compound concentration 1000.0 nM
Sequence of Tyrosine-protein kinase JAK1 (Homo sapiens) (P23458 whole entry): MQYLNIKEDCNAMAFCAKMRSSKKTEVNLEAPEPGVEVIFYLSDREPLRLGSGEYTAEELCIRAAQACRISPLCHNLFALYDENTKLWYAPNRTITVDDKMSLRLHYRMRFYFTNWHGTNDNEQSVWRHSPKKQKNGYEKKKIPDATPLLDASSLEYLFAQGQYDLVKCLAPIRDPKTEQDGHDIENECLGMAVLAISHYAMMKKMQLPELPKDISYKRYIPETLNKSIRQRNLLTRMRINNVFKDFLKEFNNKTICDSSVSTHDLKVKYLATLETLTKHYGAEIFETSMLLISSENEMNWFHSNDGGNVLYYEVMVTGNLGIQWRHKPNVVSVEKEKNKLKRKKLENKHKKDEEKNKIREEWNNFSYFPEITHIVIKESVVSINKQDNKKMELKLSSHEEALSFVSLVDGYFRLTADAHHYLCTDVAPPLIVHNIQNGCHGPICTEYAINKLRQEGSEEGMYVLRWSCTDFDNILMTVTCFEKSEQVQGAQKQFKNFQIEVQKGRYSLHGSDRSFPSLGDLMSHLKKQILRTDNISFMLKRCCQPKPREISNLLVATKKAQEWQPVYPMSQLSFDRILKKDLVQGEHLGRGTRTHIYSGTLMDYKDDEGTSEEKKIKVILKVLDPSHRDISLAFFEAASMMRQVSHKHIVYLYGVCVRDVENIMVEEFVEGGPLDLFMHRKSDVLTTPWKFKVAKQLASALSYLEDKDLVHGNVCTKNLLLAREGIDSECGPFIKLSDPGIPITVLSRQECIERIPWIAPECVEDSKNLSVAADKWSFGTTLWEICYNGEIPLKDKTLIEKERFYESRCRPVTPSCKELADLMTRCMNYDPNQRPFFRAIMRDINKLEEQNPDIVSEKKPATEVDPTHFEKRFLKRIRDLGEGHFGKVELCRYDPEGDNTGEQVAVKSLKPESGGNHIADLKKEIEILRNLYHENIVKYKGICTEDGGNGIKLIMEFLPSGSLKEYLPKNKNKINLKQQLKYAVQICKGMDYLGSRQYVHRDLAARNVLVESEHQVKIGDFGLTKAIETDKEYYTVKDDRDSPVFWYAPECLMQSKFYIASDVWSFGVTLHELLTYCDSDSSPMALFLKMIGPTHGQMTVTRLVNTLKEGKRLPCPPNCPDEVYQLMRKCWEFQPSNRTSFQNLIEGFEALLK

[6] = target: Serine/threonine-protein kinase PAK 2 (Homo sapiens) (UniProt Q13177); details: Compound concentration 1000.0 nM
Sequence of Serine/threonine-protein kinase PAK 2 (Homo sapiens) (Q13177 whole entry): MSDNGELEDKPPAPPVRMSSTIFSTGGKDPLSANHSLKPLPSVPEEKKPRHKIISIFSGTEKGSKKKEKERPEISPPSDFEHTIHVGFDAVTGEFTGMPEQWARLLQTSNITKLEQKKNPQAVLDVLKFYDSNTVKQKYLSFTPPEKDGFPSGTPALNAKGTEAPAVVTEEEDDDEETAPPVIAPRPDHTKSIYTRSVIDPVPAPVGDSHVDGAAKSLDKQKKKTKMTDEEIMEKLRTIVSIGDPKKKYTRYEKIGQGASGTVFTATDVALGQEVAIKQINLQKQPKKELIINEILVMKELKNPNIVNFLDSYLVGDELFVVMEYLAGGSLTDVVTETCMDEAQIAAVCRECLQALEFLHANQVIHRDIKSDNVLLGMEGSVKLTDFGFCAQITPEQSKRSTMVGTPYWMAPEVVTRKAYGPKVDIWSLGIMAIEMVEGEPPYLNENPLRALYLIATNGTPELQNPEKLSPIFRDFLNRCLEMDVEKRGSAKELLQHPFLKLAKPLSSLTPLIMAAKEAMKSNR

Farage = assay: Farage cell line Proliferation assay; assay type: functional, Homo sapiens; details: Compound concentration 10 uM; time 3 day
NCI-H929 = assay: H929 cell line Proliferation assay; assay type: functional, Homo sapiens; details: Compound concentration 10 uM; time 3 day
HCC1806 = assay: HCC1806 cell line Proliferation assay; assay type: functional, Homo sapiens; details: Compound concentration 10 uM; time 5 day
G-361 = assay: G361 cell line Proliferation assay; assay type: functional, Homo sapiens; details: Compound concentration 10 uM; time 5 day
HCC1937 = assay: HCC1937 cell line Proliferation assay; assay type: functional, Homo sapiens; details: Compound concentration 10 uM; time 5 day
[7] = target: 5-hydroxytryptamine receptor 7 (Homo sapiens) (UniProt P34969); details: Compound concentration 10.0 uM
Sequence of 5-hydroxytryptamine receptor 7 (Homo sapiens) (P34969 whole entry): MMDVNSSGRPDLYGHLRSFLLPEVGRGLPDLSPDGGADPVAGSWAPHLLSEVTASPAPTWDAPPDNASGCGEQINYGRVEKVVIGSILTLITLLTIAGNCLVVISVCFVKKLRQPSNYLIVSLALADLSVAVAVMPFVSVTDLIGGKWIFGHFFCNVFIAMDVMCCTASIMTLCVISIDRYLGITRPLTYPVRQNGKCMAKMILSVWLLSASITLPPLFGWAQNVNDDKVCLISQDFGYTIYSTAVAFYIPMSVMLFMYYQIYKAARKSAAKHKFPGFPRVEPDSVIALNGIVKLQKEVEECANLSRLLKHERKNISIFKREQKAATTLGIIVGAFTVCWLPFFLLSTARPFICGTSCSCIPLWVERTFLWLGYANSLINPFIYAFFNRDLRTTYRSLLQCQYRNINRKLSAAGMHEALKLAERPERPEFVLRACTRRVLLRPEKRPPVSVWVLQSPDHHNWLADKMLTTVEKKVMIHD

RPMI-8226 = assay: RPMI-8226 cell line Proliferation assay; assay type: functional, Homo sapiens; details: Compound concentration 10 uM; time 3 day
SK-MEL-1 = assay: SKMEL1 cell line Proliferation assay; assay type: functional, Homo sapiens; details: Compound concentration 10 uM; time 5 day
[8] = target: Prostaglandin G/H synthase 2 (Homo sapiens) (UniProt P35354); assay: COX2(h) CEREP ligand profiling; details: Compound concentration 10.0 uM
Sequence of Prostaglandin G/H synthase 2 (Homo sapiens) (P35354 whole entry): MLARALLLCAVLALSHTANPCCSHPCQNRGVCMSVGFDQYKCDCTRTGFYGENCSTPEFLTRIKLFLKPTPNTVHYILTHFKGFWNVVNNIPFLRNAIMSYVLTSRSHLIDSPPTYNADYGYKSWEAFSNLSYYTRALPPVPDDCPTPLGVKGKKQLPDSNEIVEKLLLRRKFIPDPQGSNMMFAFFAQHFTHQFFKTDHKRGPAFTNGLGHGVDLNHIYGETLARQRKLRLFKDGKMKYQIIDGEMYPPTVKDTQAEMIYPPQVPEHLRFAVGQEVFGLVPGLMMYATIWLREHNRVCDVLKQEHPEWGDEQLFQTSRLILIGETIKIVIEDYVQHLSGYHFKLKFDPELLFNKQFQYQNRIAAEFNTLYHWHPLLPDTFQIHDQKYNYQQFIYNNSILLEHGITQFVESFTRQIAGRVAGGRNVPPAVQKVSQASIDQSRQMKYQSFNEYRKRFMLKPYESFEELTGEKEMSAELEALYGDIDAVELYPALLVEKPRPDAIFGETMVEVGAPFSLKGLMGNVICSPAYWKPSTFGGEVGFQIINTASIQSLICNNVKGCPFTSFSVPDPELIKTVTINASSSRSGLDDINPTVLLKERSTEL

A-375 = assay: A375 cell line Proliferation assay; assay type: functional, Homo sapiens; details: Compound concentration 10 uM; time 5 day
[9] = target: Delta-type opioid receptor (Homo sapiens) (UniProt P41143); details: Compound concentration 10.0 uM
Sequence of Delta-type opioid receptor (Homo sapiens) (P41143 whole entry): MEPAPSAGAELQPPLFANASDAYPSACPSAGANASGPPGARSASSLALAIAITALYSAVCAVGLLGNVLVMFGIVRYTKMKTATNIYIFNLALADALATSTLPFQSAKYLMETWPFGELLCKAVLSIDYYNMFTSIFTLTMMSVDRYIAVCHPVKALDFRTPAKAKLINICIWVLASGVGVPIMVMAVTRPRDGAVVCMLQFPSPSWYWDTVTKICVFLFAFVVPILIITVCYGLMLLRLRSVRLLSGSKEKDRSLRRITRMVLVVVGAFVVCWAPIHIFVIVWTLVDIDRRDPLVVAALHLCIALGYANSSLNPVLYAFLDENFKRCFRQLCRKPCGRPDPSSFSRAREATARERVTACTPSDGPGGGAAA

COLO-679 = assay: Colo679 cell line Proliferation assay; assay type: functional, Homo sapiens; details: Compound concentration 10 uM; time 5 day
NCI-H1693 = assay: H1693 cell line Proliferation assay; assay type: functional, Homo sapiens; details: Compound concentration 10 uM; time 3 day
U-2973 = assay: U2973 cell line Proliferation assay; assay type: functional, Homo sapiens; details: Compound concentration 10 uM; time 3 day
MOLM-13 = assay: MOLM-13 cell line Proliferation assay; assay type: functional, Homo sapiens; details: Compound concentration 10 uM; time 3 day
L-363 = assay: L-363 cell line Proliferation assay; assay type: functional, Homo sapiens; details: Compound concentration 10 uM; time 3 day
MDA-MB-436 = assay: MDA_MB_436 cell line Proliferation assay; assay type: functional, Homo sapiens; details: Compound concentration 10 uM; time 5 day
HCC1143 = assay: HCC1143 cell line Proliferation assay; assay type: functional, Homo sapiens; details: Compound concentration 10 uM; time 5 day
JVM-2 = assay: JVM-2 cell line Proliferation assay; assay type: functional, Homo sapiens; details: Compound concentration 10 uM; time 3 day
OCI-Ly1 = assay: OCI Ly1 cell line Proliferation assay; assay type: functional, Homo sapiens; details: Compound concentration 10 uM; time 3 day
[10] = target: Sodium-dependent noradrenaline transporter (Homo sapiens) (UniProt P23975); details: Compound concentration 10.0 uM
Sequence of Sodium-dependent noradrenaline transporter (Homo sapiens) (P23975 whole entry): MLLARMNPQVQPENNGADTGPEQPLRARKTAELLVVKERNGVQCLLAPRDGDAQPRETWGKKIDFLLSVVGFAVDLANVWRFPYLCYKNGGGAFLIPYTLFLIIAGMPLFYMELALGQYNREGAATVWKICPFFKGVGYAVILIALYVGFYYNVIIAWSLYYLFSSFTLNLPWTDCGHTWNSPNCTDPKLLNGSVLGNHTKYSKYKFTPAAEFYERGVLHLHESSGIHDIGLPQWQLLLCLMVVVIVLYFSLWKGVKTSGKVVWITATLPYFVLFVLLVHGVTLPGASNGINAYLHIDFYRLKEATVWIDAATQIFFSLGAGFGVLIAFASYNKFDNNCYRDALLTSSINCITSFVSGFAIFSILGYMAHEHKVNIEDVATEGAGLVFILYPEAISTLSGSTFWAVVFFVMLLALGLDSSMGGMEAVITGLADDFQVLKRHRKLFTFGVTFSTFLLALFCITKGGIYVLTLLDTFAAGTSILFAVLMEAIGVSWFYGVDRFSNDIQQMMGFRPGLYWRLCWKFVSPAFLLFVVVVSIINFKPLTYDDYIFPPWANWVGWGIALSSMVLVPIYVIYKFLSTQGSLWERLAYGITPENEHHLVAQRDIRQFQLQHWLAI

Daudi = assay: Daudi cell line Proliferation assay; assay type: functional, Homo sapiens; details: Compound concentration 10 uM; time 3 day

Sequence of Mitogen-activated protein kinase 11 (Homo sapiens) (Q15759 whole entry): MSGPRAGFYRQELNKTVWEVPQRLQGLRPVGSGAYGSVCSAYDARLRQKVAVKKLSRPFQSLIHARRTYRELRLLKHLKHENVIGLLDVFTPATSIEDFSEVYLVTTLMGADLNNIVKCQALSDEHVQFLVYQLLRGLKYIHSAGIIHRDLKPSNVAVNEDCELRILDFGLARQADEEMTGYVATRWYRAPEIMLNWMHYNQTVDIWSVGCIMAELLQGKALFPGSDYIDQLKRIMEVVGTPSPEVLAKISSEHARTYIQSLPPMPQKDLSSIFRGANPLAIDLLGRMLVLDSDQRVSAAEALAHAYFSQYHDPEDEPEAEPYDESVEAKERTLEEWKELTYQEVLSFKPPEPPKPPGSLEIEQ
Sequence of Cyclin-dependent kinase 9 (Homo sapiens) (P50750 whole entry): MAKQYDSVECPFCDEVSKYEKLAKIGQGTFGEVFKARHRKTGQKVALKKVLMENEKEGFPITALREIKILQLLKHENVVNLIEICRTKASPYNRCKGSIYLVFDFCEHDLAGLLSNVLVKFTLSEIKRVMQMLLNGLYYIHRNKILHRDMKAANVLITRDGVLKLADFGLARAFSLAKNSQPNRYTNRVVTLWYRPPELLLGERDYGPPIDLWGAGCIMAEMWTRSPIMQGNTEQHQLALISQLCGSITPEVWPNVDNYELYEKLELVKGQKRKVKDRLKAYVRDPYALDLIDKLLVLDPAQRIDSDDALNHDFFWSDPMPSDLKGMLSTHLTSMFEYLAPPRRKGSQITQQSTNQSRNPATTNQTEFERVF

Structure (SMILES): CNC(=O)Nc1ccc2c(c1)[C@@]1(CC2)OC(=O)N(CC(=O)N(Cc2ccc(F)cc2)[C@@H](C)C(F)(F)F)C1=O [A-486]
- residual activity [1]: 91%
- residual activity [2]: 100%
- inhibition [3]: 1%
- IC50 [4]: > 10 µM
- residual activity [5]: 93%
- residual activity [6]: 94%

Structure (SMILES): CNC(=O)Nc1ccc2c(c1)CC[C@@]21OC(=O)N(CC(=O)N(Cc2ccc(F)cc2)[C@@H](C)C(F)(F)F)C1=O [A-485]
- Cell Proliferation EC50 (Farage): >10 µM
- Cell Proliferation EC50 (NCI-H929): 0.329 µM
- Cell Proliferation EC50 (HCC1806): 2.9512 µM
- Cell Proliferation EC50 (G-361): 3.768 µM
- Cell Proliferation EC50 (HCC1937): >10 µM
- inhibition [7]: 7.83%
- Cell Proliferation EC50 (RPMI-8226): 0.164 µM
- Cell Proliferation EC50 (SK-MEL-1): 0.571 µM
- inhibition [8]: 11%
- Cell Proliferation EC50 (A-375): >10 µM
- inhibition [9]: -2.53%
- Cell Proliferation EC50 (COLO-679): 2.258 µM
- Cell Proliferation EC50 (NCI-H1693): 2.367 µM
- Cell Proliferation EC50 (U-2973): 0.6622 µM
- Cell Proliferation EC50 (MOLM-13): 0.35 µM
- Cell Proliferation EC50 (L-363): 0.509 µM
- Cell Proliferation EC50 (MDA-MB-436): >10 µM
- Cell Proliferation EC50 (HCC1143): >10 µM
- Cell Proliferation EC50 (JVM-2): >10 µM
- Cell Proliferation EC50 (OCI-Ly1): 0.9405 µM
- inhibition [10]: -3.76%
- Cell Proliferation EC50 (Daudi): 0.4346 µM
